{"source": "patent US20100113453A1", "about": "“Sublingual Formulations of D-Cycloserine and Methods of Using Same” (priority 2007, published 2010)", "key": {"[1]": {"tested_on": "Mycobacterium tuberculosis strains", "conditions": "typical Mycobacterium tuberculosis strains; cited from earlier work"}, "[2]": {"conditions": "sub-antimicrobial dose, cited from earlier work"}, "[3]": {"assay": "Absorption into the blood following sublingual versus oral administration of D-cycloserine", "format": "in vivo, Sprague-Dawley rats", "conditions": "rat; for concentration at 0 min / concentration at 10 min / concentration at 20 min / concentration at 40 min / concentration at 80 min: male, Sprague-Dawley, plasma, 15 mg/kg, read-out: DCS plasma level; for concentration at 0 min: 0 minutes (baseline before DCS administration); for concentration at 10 min: 10 minutes elapsed; for concentration at 20 min: 20 minutes elapsed; for concentration at 40 min: 40 minutes elapsed; for concentration at 80 min: 80 minutes elapsed", "description": "Subjects: 18 male, Sprague-Dawley rats (Charles River, Raleigh N.C.).\nProcedure: The rats were implanted with intravenous catheters using the methods of Thrivikraman et al., (“Jugular vein catheterization for repeated blood sampling in the unrestrained conscious rat” (2002) Brain Res. Brain Res. Protoc., 10(2), p. 84-94). Following two days of recovery, rats were lightly anesthetized with isofluorothane and given DCS either sublingually (n=10) or orally (n=8). D-cycloserine was dissolved in saline and given at a volume of 75 μL/rat sublingually and (after dilution by a factor of two) 150 μL/rat when administered orally (concentration of 15 mg/kg). Aliquots of 0.5-1.0 mL blood samples were collected: at baseline before DCS administration; and subsequently at 10, 20, 40, and 80 minutes after DCS administration. Blood samples were injected into pre-heparinized tubes and immediately placed on ice. Because the assays required at least 1 mL of plasma, samples from two rats given the same treatment and sampled at the same time were combined so that there were 25 samples from the sublingual group (10 rats/2×5 samples) and 20 samples from the oral group (8 rats/2×5 samples). Plasma was separated by centrifugation at 770 g for 10 minutes, placed in polypropylene tubes, frozen at −80° C., then shipped on dry ice to an outside laboratory to assay DCS levels. […] At the dosages studied, the resulting DCS plasma levels were near the lower detection limits of the assay."}, "[4]": {"conditions": "typical doses for the treatment of tuberculosis (500-1000 mg/day), chronic dosing; cited from earlier work"}, "[5]": {"conditions": "cited from earlier work"}}, "note": "Read-outs that look alike come from different tables or passages of the source.", "data": [{"smiles": "NC1CONC1=O", "note": "(stereo not drawn) [DCS, 4-amino-1,2-oxazolidin-3-one]", "values": [{"measurement": "minimum inhibitory concentrations (MIC) in vitro", "setting": "[1]", "result": "6 to 25", "unit": "µg/mL"}, {"measurement": "peak serum concentrations", "setting": "[2]; child subject, less than or equal to 2 mg/kg", "result": "less than or equal to 5 μg/mL"}, {"measurement": "peak serum concentrations", "setting": "[2]; less than or equal to 2 mg/kg and greater than about 0.2 mg/kg", "result": "less than or equal to 5 μg/mL"}, {"measurement": "concentration at 0 min", "setting": "[3]; other: sublingual, sublingual", "result": 0, "unit": "ng/mL"}, {"measurement": "concentration at 10 min", "setting": "[3]; other: sublingual, sublingual", "result": 900, "unit": "ng/mL"}, {"measurement": "concentration at 20 min", "setting": "[3]; other: sublingual, sublingual", "result": 1600, "unit": "ng/mL"}, {"measurement": "concentration at 40 min", "setting": "[3]; other: sublingual, sublingual", "result": 4700, "unit": "ng/mL"}, {"measurement": "concentration at 80 min", "setting": "[3]; other: sublingual, sublingual", "result": 5200, "unit": "ng/mL"}, {"measurement": "concentration at 0 min", "setting": "[3]; oral", "result": 0, "unit": "ng/mL"}, {"measurement": "concentration at 10 min", "setting": "[3]; oral", "result": 1600, "unit": "ng/mL"}, {"measurement": "concentration at 20 min", "setting": "[3]; oral", "result": 2300, "unit": "ng/mL"}, {"measurement": "concentration at 40 min", "setting": "[3]; oral", "result": 5400, "unit": "ng/mL"}, {"measurement": "concentration at 80 min", "setting": "[3]; oral", "result": 5400, "unit": "ng/mL"}, {"measurement": "blood plasma concentrations after sublingual administration relative to oral administration", "setting": "[3]; sublingual versus oral", "result": "comparable to those achieved by oral administration"}, {"measurement": "side effects in treated subjects", "setting": "[4]", "result": "significant neurological side effects"}, {"measurement": "serum concentrations generally maintained", "setting": "[5]; dose of 500 mg/day, chronic treatment", "result": "25000 to 30000", "unit": "ng/mL"}, {"measurement": "half-life", "setting": "[5]; known oral tablets, primarily renal excretion", "result": 10, "unit": "h"}, {"measurement": "time of peak serum concentrations after dosing", "setting": "[5]; known oral tablets", "result": "3 to 8", "unit": "h"}]}]}
